Experimental data: patent US20040005537A1, “Method of identifying toxic agents using differential gene expression” (priority 2000, published 2004)

Tests used:
rat heart tissue = test: GENECALLING differential gene expression analysis after dosing of serotonin modulating agents; type: in vivo, Sprague Dawley rats
Method in brief: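 GENECALLING profiling of cDNA from total RNA, keeping gene fragments modulated beyond ±1.5-fold. Tissue collected 24 h after final dosing of serotonin modulating agents; control rats received sterile water or canola oil.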

[1] = grouping used to generate the distinguishing gene profiles; cited from earlier work

## CNCCC(Oc1ccc(C(F)(F)F)cc1)c1ccccc1 (stereo not shown) [fluoxetine]
Rat heart tissue; CARDIOTOX 71
  Effects on Transcription Level: Novel gene fragment, 535 bp, 90% SI to mouse slow/cardiac troponin C [M29793]: −2.0 fold
Rat heart tissue; CARDIOTOX 72
  Effects on Transcription Level: Novel gene fragment, 445 bp, 85% SI to human skeletal muscle alpha 2 actinin [M86406]: −1.6 fold
Rat heart tissue; CARDIOTOX 73
  Effects on Transcription Level: Novel gene fragment, 246 bp, 89% SI to mouse ponsin-1 [AF078667]: −2.5 fold
Rat heart tissue; CARDIOTOX 74
  Effects on Transcription Level: Novel gene fragment, 126 bp, 77% SI to human DNA sequence from cosmid V311G7, between markers DXS366 and DXS87 on chromosome X [Z69304]: +2.0 fold
Rat heart tissue; CARDIOTOX 75
  Effects on Transcription Level: Novel gene fragment, 370 bp: −1.9 fold
Rat heart tissue; CARDIOTOX 76
  Effects on Transcription Level: Novel gene fragment, 337 bp, 78% SI to novel human protein AHNAK [M80899]: −2.5 fold
Rat heart tissue; CARDIOTOX 77
  Effects on Transcription Level: Novel gene fragment, 100 bp, 93% SI to human KIAA0750 protein [ABO18293]: −7.6 fold
Rat heart tissue; CARDIOTOX 78
  Effects on Transcription Level: Novel gene fragment, 44 bp: −5.6 fold
Rat heart tissue; CARDIOTOX 79
  Effects on Transcription Level: Novel gene fragment, 698 bp, 93% SI to mouse plenty-of-prolines-101 [AF062655]: −2.3 fold
Rat heart tissue; CARDIOTOX 80
  Effects on Transcription Level: Novel gene fragment, 660 bp, 84% SI to mouse membrane protein TMS-2 [AF181685]: −4.1 fold
Rat heart tissue; CARDIOTOX 81
  Effects on Transcription Level: Novel gene fragment, 115 bp: −8.1 fold
Rat heart tissue; CARDIOTOX 82
  Effects on Transcription Level: Novel gene fragment, 294 bp, 95% SI to mouse Ndr1 related protein Ndr2 [AB033921]: −2.5 fold
Rat heart tissue; CARDIOTOX 83
  Effects on Transcription Level: Novel gene fragment, 198 bp: +2.5 fold
Rat heart tissue; CARDIOTOX 84
  Effects on Transcription Level: Novel gene fragment, 730 bp, 86% SI to mouse E800 [Y10968]: −1.8 fold
Rat heart tissue; CARDIOTOX 85
  Effects on Transcription Level: Novel gene fragment, 294 bp, 98% SI to cysteine conjugate beta-lyase [S61960]: −1.8 fold
Rat heart tissue; CARDIOTOX 86, GenBank A1243266
  Effects on Transcription Level: Aconitase: −3.9 fold
Rat heart tissue; CARDIOTOX 87, GenBank M17422
  Effects on Transcription Level: Ribosomal protein L7: +2.7 fold
Rat heart tissue; CARDIOTOX 88, GenBank X51706
  Effects on Transcription Level: Ribosomal protein L9: +6.0 fold
Rat heart tissue; CARDIOTOX 89, GenBank X53504
  Effects on Transcription Level: Ribosomal protein L12: −2.2 fold
Rat heart tissue; CARDIOTOX 90, GenBank V01270
  Effects on Transcription Level: 18S, 5.8S, and 28S ribosomal RNA's: +7 fold
Rat heart tissue; CARDIOTOX 91, GenBank U10357
  Effects on Transcription Level: Pyruvate dehydrogenase kinase 2 (PDK2): −11.3 fold
Rat heart tissue; CARDIOTOX 92, GenBank J03179
  Effects on Transcription Level: D-Binding Protein (DBP): −1.5 fold
Rat heart tissue; CARDIOTOX 93, GenBank L03294
  Effects on Transcription Level: Lipoprotein lipase: −3.7 fold
Rat heart tissue; CARDIOTOX 94, GenBank X02610
  Effects on Transcription Level: Non-neuronal enolase: +3.1 fold
Rat heart tissue; CARDIOTOX 95, GenBank L10669
  Effects on Transcription Level: Glycogen phosphorylase (muscle isozyme): −3.0 fold
Rat heart tissue; CARDIOTOX 96, GenBank X14209
  Effects on Transcription Level: Cytochrome c oxidase subunit IV: +8.0 fold
Rat heart tissue; CARDIOTOX 97, GenBank M17083
  Effects on Transcription Level: Alpha-globin: +2.9 fold
Rat heart tissue; CARDIOTOX 98, GenBank X06701
  Effects on Transcription Level: Beta-globin: +4.0 fold
Rat heart tissue; CARDIOTOX 99, GenBank AF197916
  Effects on Transcription Level: Myoglobin: +2.2 fold
Rat heart tissue; CARDIOTOX 100, GenBank L38717
  Effects on Transcription Level: Titin: +1.6 fold
Rat heart tissue; CARDIOTOX 101, GenBank V01218
  Effects on Transcription Level: Skeletal muscle actin: −13.1 fold
Rat heart tissue; CARDIOTOX 102, GenBank M11851
  Effects on Transcription Level: Myosin light chain 2 (MLC2): +3.6 fold
Rat heart tissue; CARDIOTOX 103, GenBank X15938
  Effects on Transcription Level: Alpha cardiac myosin heavy chain: −4.8 fold
Rat heart tissue; CARDIOTOX 104, GenBank U77354
  Effects on Transcription Level: Troponin I: +1.6 fold
Rat heart tissue; CARDIOTOX 105, GenBank AF001334
  Effects on Transcription Level: Cardiac calsequestrin: −2.4 fold
Rat heart tissue; CARDIOTOX 106, GenBank M16975
  Effects on Transcription Level: Sulfated glycoprotein 2: −2.2 fold
Rat heart tissue; CARDIOTOX 107, GenBank AB000507
  Effects on Transcription Level: Aquaporin 7: +1.8 fold
Rat heart tissue; CARDIOTOX 108, GenBank X97831
  Effects on Transcription Level: Carnitine/acylcarnitine carrier protein: −2.6 fold
Rat heart tissue; CARDIOTOX 109, GenBank U40628
  Effects on Transcription Level: Glu-Pro Dipeptide Repeat: −3.1 fold
Rat heart tissue; CARDIOTOX 110, GenBank X54737
  Effects on Transcription Level: Cystatin beta: +2.5 fold
Rat heart tissue; CARDIOTOX 111
  Effects on Transcription Level: Novel gene fragment, 593 bp, 90% SI to human calcineurin B-like protein [Z08983]: +2.1 fold
Rat heart tissue; CARDIOTOX 112
  Effects on Transcription Level: Novel gene fragment, 179 bp, 88% SI to human titin [X90568]: −1.8 fold
Rat heart tissue; CARDIOTOX 113
  Effects on Transcription Level: Novel gene fragment, 700 bp, 91% SI to mouse periplakin (PPL) [AF116523]: +2.1 fold
Rat heart tissue; CARDIOTOX 114, GenBank J05029
  Effects on Transcription Level: Long chain acyl-CoA dehydrogenase (LCAD): +1.6 fold
Rat heart tissue; CARDIOTOX 115, GenBank M19936
  Effects on Transcription Level: Sulfated glycoprotein 1 (SGP-1): −2.1 fold
Rat heart tissue; CARDIOTOX 116, GenBank M11670
  Effects on Transcription Level: Catalase: +1.9 fold
Rat heart tissue; CARDIOTOX 117, GenBank AF084186
  Effects on Transcription Level: Alpha-fodrin (A2A) (Nonerythroid spectrin alpha subunit): −1.6 fold
Rat heart tissue; CARDIOTOX 118, GenBank M27902
  Effects on Transcription Level: Cardiac specific sodium channel alpha-subunit: −2.1 fold
Rat heart tissue; CARDIOTOX 119, GenBank U40628
  Effects on Transcription Level: Glu-Pro Dipeptide Repeat: +2.7 fold
Rat heart tissue; CARDIOTOX 120
  Effects on Transcription Level: Novel gene fragment, 200 bp, 64% SI to human KIAA0733 protein [AB018316]: −1.6 fold
Rat heart tissue; CARDIOTOX 121, GenBank L42855
  Effects on Transcription Level: RNA polymerase II transcription factor SIII (p18 subunit): +1.8 fold
Rat heart tissue; CARDIOTOX 122, GenBank L01702
  Effects on Transcription Level: Protein-tyrosine phosphalase (LRP): +1.5 fold
Rat heart tissue; CARDIOTOX 123, GenBank U25264
  Effects on Transcription Level: Skeletal muscle selenoprotein W (SelW): −1.6 fold
Rat heart tissue; CARDIOTOX 124, GenBank X15635
  Effects on Transcription Level: Sarcoplasmic reticulum 2+-Ca-ATPase: −1.8 fold
Rat heart tissue; CARDIOTOX 125, GenBank X53377
  Effects on Transcription Level: Ribosomal protein S7: +1.3 fold
Rat heart tissue; CARDIOTOX 126, GenBank X05300
  Effects on Transcription Level: Ribophorin I: +1.4 fold
Rat heart tissue; CARDIOTOX 127, GenBank X15939
  Effects on Transcription Level: Beta cardiac myosin heavy chain: +1.4 fold
Rat heart tissue; CARDIOTOX 128, GenBank L12380
  Effects on Transcription Level: ADP-ribosylation factor 1: −1.0 fold
Rat heart tissue; CARDIOTOX 129, GenBank U04942
  Effects on Transcription Level: Laminin receptor: −1.5 fold
Rat heart tissue; CARDIOTOX 130
  Effects on Transcription Level: Novel gene fragment, 206 bp, 89% SI to human seryl-tRNA synthetase [X91257]: +1.7 fold
Rat heart tissue; CARDIOTOX 131, GenBank X86086
  Effects on Transcription Level: Annexin VI: +1.3 fold
Rat heart tissue; CARDIOTOX 132
  Effects on Transcription Level: Novel gene fragment, 325 bp, 90% SI to mouse N-RAP [U76618]: +1.4 fold
Rat heart tissue; LD10 dose for three days
  Effects on Transcription Level: Novel gene fragment, 61 bp (CARDIOTOX 134): −1.2 fold
  Effects on Transcription Level: Novel gene fragment, 337 bp (CARDIOTOX 133): +1.0 fold
  Effects on Transcription Level: Novel gene fragment, 378 bp, 88% SI to human coatomer protein (COPA) [U24105] (CARDIOTOX 138): −1.1 fold
Rat heart tissue; LD10 dose for three days, GenBank D16479
  Effects on Transcription Level: Long chain 3-ketoacyl-CoA thiolase (CARDIOTOX 136): −1.1 fold
Rat heart tissue; LD10 dose for three days, GenBank D87671
  Effects on Transcription Level: TATA-binding protein interacting protein 120 (TIP120) (CARDIOTOX 135): +1.4 fold
Rat heart tissue; LD10 dose for three days, GenBank D88250
  Effects on Transcription Level: Serine protease (CARDIOTOX 139): +1.5 fold
Rat heart tissue; LD10 dose for three days, GenBank M34043
  Effects on Transcription Level: Thymosin beta-4 (CARDIOTOX 137): +1.4 fold
[1]
  classification as cardiotoxic or noncardiotoxic serotonin modulating agent: noncardiotoxic
